Source: patent US20260297060A1, “COMPOUNDS FOR THE DEGRADATION OF MUTANT BRAF” (C4 THERAPEUTICS, INC., priority 2023, published 2026)
Where two headings read alike, the source gives them in different places.

Key:
BRAF V600E = biological target: T1, BRAF V600E (Homo sapiens, UniProt P15056+Q96SW2, V600E); experiment: BRAF V600E HiBiT Degradation Assay; format: cell-based
T1 construct: knock-in of the HiBiT tag to the endogenous BRAF V600E locus; host or cells: A375.10 (A375 clonal line, CRISPR HiBiT knock-in at the endogenous BRAF V600E locus)
T1 sequence (P15056 whole entry V600E): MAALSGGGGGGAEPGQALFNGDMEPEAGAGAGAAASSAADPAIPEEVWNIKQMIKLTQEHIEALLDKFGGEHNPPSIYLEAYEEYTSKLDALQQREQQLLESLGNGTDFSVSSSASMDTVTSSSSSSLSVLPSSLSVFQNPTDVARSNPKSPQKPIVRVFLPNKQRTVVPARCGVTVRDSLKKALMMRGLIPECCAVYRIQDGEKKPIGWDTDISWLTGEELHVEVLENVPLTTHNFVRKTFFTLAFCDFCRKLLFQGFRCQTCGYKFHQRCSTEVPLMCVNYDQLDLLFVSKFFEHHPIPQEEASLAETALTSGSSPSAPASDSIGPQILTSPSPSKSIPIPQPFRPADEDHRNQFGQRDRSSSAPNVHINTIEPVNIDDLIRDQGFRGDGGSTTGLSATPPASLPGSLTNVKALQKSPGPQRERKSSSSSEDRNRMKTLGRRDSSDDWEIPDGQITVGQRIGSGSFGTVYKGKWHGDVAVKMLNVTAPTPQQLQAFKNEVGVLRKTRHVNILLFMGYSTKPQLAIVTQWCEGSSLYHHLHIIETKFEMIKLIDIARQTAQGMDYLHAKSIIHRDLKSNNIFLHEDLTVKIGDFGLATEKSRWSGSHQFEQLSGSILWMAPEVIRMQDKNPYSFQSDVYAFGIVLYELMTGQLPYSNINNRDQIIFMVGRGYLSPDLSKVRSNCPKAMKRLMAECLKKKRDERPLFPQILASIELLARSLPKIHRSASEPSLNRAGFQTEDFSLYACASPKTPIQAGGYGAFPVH
T1 sequence (Q96SW2 whole entry): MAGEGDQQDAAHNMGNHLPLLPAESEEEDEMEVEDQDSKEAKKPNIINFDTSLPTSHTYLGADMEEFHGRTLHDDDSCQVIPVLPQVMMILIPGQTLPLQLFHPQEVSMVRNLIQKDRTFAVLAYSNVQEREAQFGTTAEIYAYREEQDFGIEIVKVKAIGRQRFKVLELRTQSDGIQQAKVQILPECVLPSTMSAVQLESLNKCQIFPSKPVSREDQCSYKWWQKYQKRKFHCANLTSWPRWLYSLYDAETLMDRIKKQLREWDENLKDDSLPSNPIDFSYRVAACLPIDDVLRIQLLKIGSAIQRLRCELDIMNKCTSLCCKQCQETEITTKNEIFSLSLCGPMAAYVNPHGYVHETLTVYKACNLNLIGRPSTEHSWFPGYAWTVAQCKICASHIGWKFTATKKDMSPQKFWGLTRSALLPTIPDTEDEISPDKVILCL
T1 sequence (Q16531 whole entry partner): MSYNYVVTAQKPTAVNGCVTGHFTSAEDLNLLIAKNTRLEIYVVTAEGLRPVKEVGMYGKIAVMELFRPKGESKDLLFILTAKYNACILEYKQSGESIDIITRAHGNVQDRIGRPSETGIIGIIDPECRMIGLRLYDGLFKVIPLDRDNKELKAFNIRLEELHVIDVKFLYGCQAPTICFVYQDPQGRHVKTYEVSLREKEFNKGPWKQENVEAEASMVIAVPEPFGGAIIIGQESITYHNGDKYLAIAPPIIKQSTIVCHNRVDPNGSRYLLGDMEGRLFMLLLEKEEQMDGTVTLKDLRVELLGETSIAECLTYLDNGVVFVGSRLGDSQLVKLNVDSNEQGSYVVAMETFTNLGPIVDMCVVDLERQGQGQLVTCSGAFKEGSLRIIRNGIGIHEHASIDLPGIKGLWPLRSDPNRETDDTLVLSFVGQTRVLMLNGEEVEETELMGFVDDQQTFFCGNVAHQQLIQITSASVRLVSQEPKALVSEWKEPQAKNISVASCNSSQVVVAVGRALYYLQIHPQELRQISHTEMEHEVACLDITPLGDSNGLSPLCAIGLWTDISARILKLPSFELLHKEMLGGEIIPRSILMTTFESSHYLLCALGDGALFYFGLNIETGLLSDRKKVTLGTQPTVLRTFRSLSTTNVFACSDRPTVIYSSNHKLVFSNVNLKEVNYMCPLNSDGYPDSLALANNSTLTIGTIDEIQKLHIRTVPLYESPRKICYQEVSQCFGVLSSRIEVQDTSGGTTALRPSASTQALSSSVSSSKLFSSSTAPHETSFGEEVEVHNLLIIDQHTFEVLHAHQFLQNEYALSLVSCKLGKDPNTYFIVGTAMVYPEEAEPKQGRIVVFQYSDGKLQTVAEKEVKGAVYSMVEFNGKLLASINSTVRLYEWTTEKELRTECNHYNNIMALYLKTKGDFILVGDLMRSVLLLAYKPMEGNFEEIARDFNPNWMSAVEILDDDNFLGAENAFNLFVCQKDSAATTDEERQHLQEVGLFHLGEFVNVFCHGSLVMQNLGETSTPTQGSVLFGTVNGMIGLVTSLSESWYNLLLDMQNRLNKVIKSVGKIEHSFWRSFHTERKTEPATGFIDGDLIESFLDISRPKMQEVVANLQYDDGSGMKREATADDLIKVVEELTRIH
Procedure: Compounds of this invention were tested for degradation of mutant BRAF V600E using the HiBiT assay, a luminescence-based assay for quantification of cellular protein levels using the Nano-Glo® HiBiT Lytic Detection System (Catalog No. N3050, Promega, Madison, WI USA). This assay utilizes the HiBiT tag on a protein of interest, which creates a luminescent signal in the presence of a complementing peptide and its substrate, the quantification of which is proportional to the amount of HiBiT-tagged protein in the cell.
The cell line A375, which is homozygous for the BRAF V600E mutation, was purchased from ATCC (Catalog No. CRL-1619, Manassas, VA, USA). A375 cells were engineered to express HiBiT tagged BRAF V600E by CRISPR knock-in of the HiBiT tag to the endogenous BRAF V600E locus, followed by selection of a clonal population containing the appropriate knock-in (referred to here as cell line A375.10). A375.10 cells were maintained at 37° C. in an atmosphere of 5% CO2 in Dulbecco's modified Eagle Medium (DMEM) with high glucose (Catalog No. 11965092), supplemented with 10% fetal bovine serum (FBS; Catalog No. 10437036), and 10 mM HEPES (Catalog No. 15630130), all obtained from Thermofisher Scientific (Waltham, MA, USA). Cell culture flasks and 384-well microplates were acquired from VWR (Radnor, PA, USA).
Test compounds were prepared by dissolving neat compounds in DMSO (Catalog No. D8418, Sigma-Aldrich, Inc., St. Louis, MO, USA) to generate 10 mM stock solutions, which were serially diluted (half log) in DMSO to generate an 11-point dose series (1000× final treatment concentration) in a 384-Well Low Dead Volume Microplate (Catalog No. LP-0200, Labcyte, San Jose, CA, USA). Using the Echo 550 Acoustic Liquid Handler (Labcyte), 30 nL of serially diluted compound solutions were dispensed in duplicate to 384-well TC-treated microplates (Catalog No. 3571, Corning, Glendale, CA, USA) and 30 nL of DMSO was dispensed to control wells. A375.10 cells resuspended in growth media without phenol red (Catalog No. 21063-029, Thermofisher Scientific) were then added to 384-well plates containing the 11-point dose series of compounds in duplicate (maximum 10 μM concentration for final treatment) at a density of 12,000 cells/well in 30 μl. Plates were then spun briefly, and cells were incubated with compound at 37° C. for 2 hours, 6 hours, or 24 hours.
Following the appropriate treatment time, Nano-Glo® HiBiT Lytic Assay reagents were added to the cells per the manufacturer's instructions by adding 30 μl of reagent per well, and the luminescence signal was acquired by plate reader. Cells treated with DMSO only (no test compound treatment) were used as the negative control (N). Media only (no cells added) with Nano-Glo reagent addition was used as the background or positive control (P). The percent response of compound treated samples were calculated by subtracting out the background signal (P) and normalizing to the DMSO control (N) as follows.
% Response=100×(Treated Signal−Average (P))/(Average (N)−Average (P)).
Data were analyzed with a 4-parameter logistic fit to generate sigmoidal dose-response curves. The DC50 is the concentration of compound at which 50% of the cellular BRAF V600E has been degraded. The Emax, or maximum effect of each compound, represents the amount of residual protein remaining in the cell following compound treatment. The IP, or inflection point of the dose-response curve, is the concentration of compound at which 50% of the observed degradation response is achieved.
The experiment was conducted at least once for each compound. If the experiment was conducted multiple times, the data shown in the table is the average of the two or more experiments.

A375-NRAS^Q61K cells = experiment: CTGlo Cell Viability Assay, A375-NRAS^Q61K (A375.11) cells, 96 hours; format: cell-based, human; settings: A375.11 (A375-NRAS^Q61K) cells
Procedure: Compounds of this invention were tested for their effect on the viability of A375-NRAS^Q61K cells by quantification of ATP using the CellTiter-Glo® 2.0 Cell Viability Assay (Catalog No. G9243, Promega, Madison, WI, USA). This assay produces a luminescent signal in the presence of ATP, which is indicative of metabolically active cells, making the luminescence readout proportional to the number of viable cells.
A375-NRAS^Q61K cells (harboring BRAF homozygous V600E mutation and NRAS homozygous Q61K mutation) were purchased from ATCC (Catalog No. CRL-1619IG-2, Manassas, VA, USA). A375-NRAS^Q61K cells (also referred to here as A375.11) were maintained at 37° C. in an atmosphere of 5% CO2 in Dulbecco's modified Eagle Medium (DMEM) with high glucose (Catalog No. 11965092), supplemented with 10% fetal bovine serum (FBS; Catalog No. 10437036), and 10 mM HEPES (Catalog No. 15630130), all obtained from Thermofisher Scientific (Waltham, MA, USA). Cell culture flasks and 384-well microplates were acquired from VWR (Radnor, PA, USA).
Test compounds were prepared by dissolving neat compounds in DMSO (Catalog No. D8418, Sigma-Aldrich, Inc., St. Louis, MO, USA) to generate 10 mM stock solutions, which were serially diluted (half log) in DMSO to generate an 11-point dose series (1000× final treatment concentration) in a 384-Well Low Dead Volume Microplate (Catalog No. LP-0200, Labcyte, San Jose, CA, USA). Using the Echo 550 Acoustic Liquid Handler (Labcyte), 50 nL of serially diluted compound solutions were dispensed in duplicate to 384-well TC-treated microplates (Catalog No. 3571, Corning, Glendale, CA, USA) and 50 nL of DMSO was dispensed to control wells. A375-NRAS^Q61K cells were resuspended in growth media and added to 384-well plates containing a […] of compounds in duplicate (maximum 10 μM concentration for final treatment) at a density of 250 cells/well in 50 μl. Cells were also plated to a 384-well plate with no compound treatment, to which CellTiter-Glo® reagent was added and luminescence was read right after plating to act as a baseline signal at time of plating (To). Plates treated with compound were then spun briefly, and cells were incubated with compound at 37° C. for 96 hours.
After 96 hours compound treatment, CellTiter-Glo® reagent was added to the cells at 25 μl per well and luminescence was read out on the PHERAstar plate reader (BMG Labtech, Ortenberg, Germany). Cells treated with DMSO only (no test compound treatment) were used as the negative control (N). DMSO treated cells with no CellTiter-Glo® reagent added were used as the background or positive control (P). Viability was determined by subtracting out the average background signal (P) and normalized to the average untreated signal (N) set at 100%.
Data were analyzed with a 4-parameter logistic fit to generate sigmoidal dose-response curves. The half-maximal inhibition of cell growth (GI50) is the concentration at which the fitted curve crosses 50%. The Emax, or maximum effect of each compound, represents the lowest % viability achieved following compound treatment.

[1] = A375.10 cells, BRAF V600E, 2 hours, inflection point, read-out: HiBiT-Degradation A375.10 BRAF 2 hours IP
[2] = A375.10 cells, BRAF V600E, 2 hours, read-out: HiBiT-Degradation A375.10 BRAF 2 hours DC50
[3] = A375.10 cells, BRAF V600E, 2 hours, residual protein remaining
[4] = A375.10 cells, BRAF V600E, 6 hours, inflection point, read-out: HiBiT-Degradation A375.10 BRAF 6 hours IP
[5] = A375.10 cells, BRAF V600E, 6 hours, read-out: HiBiT-Degradation A375.10 BRAF 6 hours DC50
[6] = A375.10 cells, BRAF V600E, 6 hours, residual protein remaining
[7] = A375.10 cells, HiBiT, BRAF V600E, 24 hours
[8] = A375.10 cells, HiBiT, BRAF V600E, 24 hours, read-out: HiBiT-Degradation A375.10 BRAF 24 hours DC50
[9] = A375.10 cells, HiBiT, BRAF V600E, 24 hours, read-out: HiBiT-Degradation A375.10 BRAF 24 hours IP

DC50 (BRAF V600E; [1])	DC50 (BRAF V600E; [2])	HiBiT-Degradation A375.10 BRAF 2 hours Emax (BRAF V600E; [3])	DC50 (BRAF V600E; [4])	DC50 (BRAF V600E; [5])	HiBiT-Degradation A375.10 BRAF 6 hours Emax (BRAF V600E; [6])	HiBiT-Degradation A375.10 BRAF 24 hours Emax (BRAF V600E; [7])	DC50 (BRAF V600E; [8])	DC50 (BRAF V600E; [9])	GI50 (A375-NRAS^Q61K cells)	HiBiT-Degradation A375.10 BRAF 2 hours Emax (BRAF V600E)	Emax (BRAF V600E; A375.10 cells, BRAF V600E, 2 hours, residual protein remaining, read-out: HiBiT-Degradation A375.10 BRAF 2 hours Emax)	Emax (BRAF V600E; A375.10 cells, BRAF V600E, 6 hours, residual protein remaining, read-out: HiBiT-Degradation A375.10 BRAF 6 hours Emax)	Emax (BRAF V600E; A375.10 cells, HiBiT, BRAF V600E, 24 hours, read-out: HiBiT-Degradation A375.10 BRAF 24 hours Emax)	Structure (SMILES)	CTGlo A375.11 96 hours Emax (A375-NRAS^Q61K cells; lowest % viability achieved)	Emax (A375-NRAS^Q61K cells; Homo sapiens, 96 h, lowest % viability achieved)
< 1000 nM	< 1000 nM	*** (<=50%)	< 1000 nM	< 1000 nM	–	–	< 1000 nM	< 1000 nM	1000 to 10000 nM	–	–	< 50%	< 50%	CCN(C)S(=O)(=O)Nc1ccc(F)c(Nc2ccc3ncn([C@H]4COC5(CCN(C6CCC(c7ccc(NC8CCC(=O)NC8=O)cc7F)CC6)CC5)C4)c(=O)c3c2)c1C#N (single isomer, unassigned) [Compound 57]	** (<90% and >50%)	–
< 1000 nM	< 1000 nM	–	–	–	–	–	–	–	1000 to 10000 nM	** (<90% and >50%)	–	–	–	CCN(C)S(=O)(=O)Nc1ccc(F)c(Oc2ccc3ncc([C@H]4COC5(CCN(C6CCC(c7ccc(NC8CCC(=O)NC8=O)cc7F)CC6)CC5)C4)nc3c2)c1C#N (single isomer, unassigned) [Compound 59]	** (<90% and >50%)	–
< 1000 nM	1000 to 10000 nM	–	–	–	–	–	–	–	> 10000 nM	** (<90% and >50%)	–	–	–	CCN(C)S(=O)(=O)Nc1ccc(F)c(Oc2ccc3ncc([C@@H]4COC5(CCN(C6CCC(c7ccc(NC8CCC(=O)NC8=O)cc7F)CC6)CC5)C4)nc3c2)c1C#N (single isomer, unassigned) [Compound 61]	** (<90% and >50%)	–

Second part, the compound before the results:

Structure (SMILES)	DC50 (BRAF V600E; [1])	DC50 (BRAF V600E; [2])	HiBiT-Degradation A375.10 BRAF 2 hours Emax (BRAF V600E; [3])	DC50 (BRAF V600E; [4])	DC50 (BRAF V600E; [5])	HiBiT-Degradation A375.10 BRAF 6 hours Emax (BRAF V600E; [6])	HiBiT-Degradation A375.10 BRAF 24 hours Emax (BRAF V600E; [7])	DC50 (BRAF V600E; [8])	DC50 (BRAF V600E; [9])	GI50 (A375-NRAS^Q61K cells)	HiBiT-Degradation A375.10 BRAF 2 hours Emax (BRAF V600E)	Emax (BRAF V600E; A375.10 cells, BRAF V600E, 2 hours, residual protein remaining, read-out: HiBiT-Degradation A375.10 BRAF 2 hours Emax)	Emax (BRAF V600E; A375.10 cells, BRAF V600E, 6 hours, residual protein remaining, read-out: HiBiT-Degradation A375.10 BRAF 6 hours Emax)	Emax (BRAF V600E; A375.10 cells, HiBiT, BRAF V600E, 24 hours, read-out: HiBiT-Degradation A375.10 BRAF 24 hours Emax)	CTGlo A375.11 96 hours Emax (A375-NRAS^Q61K cells; lowest % viability achieved)	Emax (A375-NRAS^Q61K cells; Homo sapiens, 96 h, lowest % viability achieved)
CCN(C)S(=O)(=O)Nc1ccc(F)c(Oc2ccc3ncn([C@H]4COC5(CCN(C6CCC(c7cc8c(cc7F)c(N7CCC(=O)NC7=O)nn8C)CC6O)CC5)C4)c(=O)c3c2)c1C#N (single isomer, unassigned) [Compound 45]	< 1000 nM	< 1000 nM	*** (<=50%)	< 1000 nM	< 1000 nM	*** (<=50%)	*** (<=50%)	< 1000 nM	< 1000 nM	< 1000 nM	–	–	–	–	*** (<=50%)	–
CCN(C)S(=O)(=O)Nc1ccc(F)c(Oc2ccc3ncn([C@@H]4COC5(CCN(C6CCC(c7cc8c(cc7F)c(N7CCC(=O)NC7=O)nn8C)CC6)CC5)C4)c(=O)c3c2F)c1C#N (single isomer, unassigned) [Compound 47]	< 1000 nM	< 1000 nM	–	< 1000 nM	< 1000 nM	*** (<=50%)	*** (<=50%)	< 1000 nM	< 1000 nM	1000 to 10000 nM	*** (<=50%)	–	–	–	** (<90% and >50%)	–
CCN(C)S(=O)(=O)Nc1ccc(F)c(Oc2ccc3ncn([C@H]4COC5(CCN(C6CCC(c7ccc(NC8CCC(=O)NC8=O)cc7F)CC6)CC5)C4)c(=O)c3c2F)c1C#N (single isomer, unassigned) [Compound 51]	< 1000 nM	< 1000 nM	** (<90% and >50%)	–	–	–	–	–	–	1000 to 10000 nM	–	–	–	–	*** (<=50%)	–
CCN(C)S(=O)(=O)Nc1ccc(F)c(Oc2ccc3ncn([C@@H]4COC5(CCN(C6CCC(c7ccc(NC8CCC(=O)NC8=O)cc7F)CC6)CC5)C4)c(=O)c3c2F)c1C#N (single isomer, unassigned) [Compound 53]	< 1000 nM	< 1000 nM	*** (<=50%)	–	–	–	–	–	–	1000 to 10000 nM	–	–	–	–	** (<90% and >50%)	–
CCN(C)S(=O)(=O)Nc1ccc(F)c(Nc2ccc3ncn([C@H]4COC5(CCN(C6CCC(c7ccc(NC8CCC(=O)NC8=O)cc7F)CC6)CC5)C4)c(=O)c3c2)c1C#N (single isomer, unassigned) [Compound 56]	< 1000 nM	< 1000 nM	–	–	–	–	–	–	–	> 10000 nM	–	< 50%	–	–	–	50 to 90%
